The values that follow come from PubChem BioAssay AID2842 (Southern Research Institute, 2010).

Values after ≈ are worked out from the molar mass of the structure shown.

The subject of the test is M. tuberculosis H37Rv growth inhibition. In words: Mycobacterium tuberculosis H37Rv growth inhibition, putative kinase inhibitor library, confirmatory dose response (AID 2842).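 Further: bacteria incubated one week before Alamar blue readout.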

Regarding `COc1ccc(-c2nnc(NC(=O)c3ccccc3F)o2)cc1`, the IC90 (as a rule, the concentration needed for an effect of 90%) is 66.9 µg/mL (≈ 214 µM).
Under `CCS(=O)(=O)c1cccc(C(=O)Nc2nnc(-c3cc(C)ccc3C)o2)c1` stands 9.12 µg/mL (≈ 23.7 µM); under `O=C(CCN1C(=O)c2ccccc2S1(=O)=O)Nc1ccc(Br)cc1`, 17.5 µg/mL (≈ 42.9 µM); under `Cc1ccc2sc(NNC(=O)c3coc4ccccc4c3=O)nc2c1C`, 34.9 µg/mL (≈ 95.5 µM).
Under `COc1ccc2nc(Nc3nc(C(C)(C)C)cs3)sc2c1` stands 10.1 µg/mL (≈ 31.7 µM).
Take `CSc1cccc2sc(Nc3ccc(Cl)cc3)nc12`: the IC90 is 2.31 µg/mL (≈ 7.53 µM).
Under `O=C(Nc1nnc(C2=COCCO2)o1)c1ccc2c(c1)CCCC2` stands 0.44 µg/mL (≈ 1.34 µM).
Under `CC(C)c1ccc2nc(Nc3nc4ccc(S(C)(=O)=O)cc4s3)sc2c1` stands 12 µg/mL (≈ 29.8 µM).
Under `Cc1ccc(-c2nnc(NC(=O)c3nc4ccccc4s3)o2)c(C)c1` stands 1.76 µg/mL (≈ 5.02 µM); under `CSc1cccc(-c2nnc(NC(=O)/C=C/c3cccs3)o2)c1`, 4.49 µg/mL (≈ 13.1 µM).
For the compound `CN(C)c1ccc(Nc2nncc(=O)[nH]2)cc1`, the IC90 was 8.05 µg/mL (≈ 34.8 µM).
Under `Cc1ccc(Cn2c(N3CCN(Cc4cccc5ccccc45)CC3)nc3c2c(=O)[nH]c(=O)n3C)cc1` stands 25.4 µg/mL (≈ 51.3 µM); under `O=C(Cc1ccccc1)Nc1nnc(-c2ccc(F)cc2)o1`, 8.35 µg/mL (≈ 28.1 µM).
Under `Cc1cc(C)c2nc(NNC(=O)c3ccc(F)cc3)sc2c1` stands 3.98 µg/mL (≈ 12.6 µM); under `Cc1cc(NC2CCCCC2)n2ncc(-c3ccccc3)c2n1`, 10.6 µg/mL (≈ 34.5 µM); under `CCOC(=O)N1CCc2c(sc(NC(=O)c3ccccc3)c2C(N)=O)C1`, 1.84 µg/mL (≈ 4.93 µM).
In the case of `COc1cccc(NC(=O)c2ccc(COc3cccc(C)c3)o2)c1`, the IC90 is 11.7 µg/mL (≈ 34.7 µM).
Consider `Cc1ccc2sc(NNC(=O)c3cc4ccccc4oc3=O)nc2c1C`, for which the IC90 was 4.21 µg/mL (≈ 11.5 µM).
Under `COc1cc2c3nnc(-c4ccc(F)cc4)c-3cn(Cc3ccccc3)c2cc1OC` stands 12 µg/mL (≈ 29 µM); under `COc1ccc(C2c3cccn3CCN2C(=O)Nc2ccc(Cl)cc2)cc1` (stereo not given), 9.87 µg/mL (≈ 25.8 µM).
Under `CCCCOc1cccc(C(=O)Nc2nnc(-c3ccc(C)cc3C)o2)c1` stands 2.63 µg/mL (≈ 7.2 µM); under `CN(C)c1ccc(C(=O)Nc2nnc(C3=COCCO3)o2)cc1`, 9.01 µg/mL (≈ 28.5 µM).
Under `Cc1cc(Cl)ccc1N/C=C(\C#N)c1nc2ccccc2[nH]1` stands 23.9 µg/mL (≈ 77.4 µM); under `O=C(CCOc1ccccc1)Nc1nnc(-c2ccc3c(c2)CCCC3)o1`, 18.1 µg/mL (≈ 49.8 µM).
Regarding `Cc1ccc2nc(N(CCCn3ccnc3)C(=O)c3cccs3)sc2c1`, the IC90 was 1.73 µg/mL (≈ 4.52 µM).
Turning to `COc1cccc(-c2nnc(SCC(=O)Nc3cc(C)on3)o2)c1`, the IC90 was 3.26 µg/mL (≈ 9.41 µM).
On to `O=C(Nc1nnc(-c2ccc(Br)cc2)o1)c1ccc(S(=O)(=O)N2CCCCCC2)cc1`, for which the IC90 is 16 µg/mL (≈ 31.7 µM).
Under `CCOc1ccc2c(c1)O/C(=C\c1cccc(OCC(=O)OC)c1)C2=O` stands 1.66 µg/mL (≈ 4.68 µM).
Under `Cc1ccc(-c2csc(Nc3nc4cc5c(cc4s3)OCO5)n2)o1` stands 26.6 µg/mL (≈ 74.5 µM); under `Cc1ccc(C)c(-c2nnc(NC(=O)c3cc(Cl)ccc3[N+](=O)[O-])o2)c1`, 0.68 µg/mL (≈ 1.82 µM).
Under `Cc1ccc(C)c(-c2nnc(NC(=O)C(C)(C)C)o2)c1` stands 1.32 µg/mL (≈ 4.83 µM); under `Cc1ccc(C)c(-c2nnc(NC(=O)c3ccc(Cl)cc3Cl)o2)c1`, 2.21 µg/mL (≈ 6.1 µM).
As to `COc1ccc(Nc2c3c4c(cccc4[nH]c2=O)C(=O)c2ccccc2-3)cc1`, the 90% effect concentration (IC90) is 12.4 µg/mL (≈ 33.7 µM).
For the compound `COc1ccc(-c2nc(N3CCCCC3)nc3n[nH]c(N)c23)cc1`, the concentration for an effect of 90% (IC90) was 12.9 µg/mL (≈ 39.8 µM).
Under `COC(=O)C(C)Oc1ccc2cc(-c3ccc(OC)cc3)c(=O)oc2c1` (stereo not given) stands 1.07 µg/mL (≈ 3.02 µM); under `Cc1ccccc1C1C=C(c2cccs2)Nc2nc3ccccc3n21` (stereo not given), 13.8 µg/mL (≈ 40 µM).
`O=C(Nc1cccc(Cl)c1)Nc1c2c(nn1-c1ccccc1)CSC2`: the 90% effect concentration (IC90) is 19.7 µg/mL (≈ 53.2 µM).
In the case of `CC(C)OC(=O)c1ccc(NC(=O)C2COc3ccccc3O2)cc1` (stereo not given), the IC90 was 7.2 µg/mL (≈ 21.1 µM).
Under `O=C1C(Cl)=C(Nc2ccccc2O)C(=O)N1c1ccccc1` stands 3.29 µg/mL (≈ 10.5 µM); under `NC(=O)c1c(NC(=O)c2ccc([N+](=O)[O-])s2)sc2c1CCN(Cc1ccccc1)C2`, 0.46 µg/mL (≈ 1.04 µM); under `O=C(COc1ccccc1)Nc1nnc(-c2cc(Cl)ccc2Cl)o1`, 27.8 µg/mL (≈ 76.4 µM).
Consider `COc1ccc2nc(NNC(=O)c3cccc(F)c3)sc2c1`, for which the concentration for an effect of 90% (IC90) is 15.8 µg/mL (≈ 49.8 µM).
Under `Cc1ccc(C)c(-c2nnc(NC(=O)c3cccc(Cl)c3)o2)c1` stands 16.3 µg/mL (≈ 49.8 µM).
As to `COc1cc2c3nnc(-c4ccc(C)c(C)c4)c-3cn(Cc3ccc(C)cc3)c2cc1OC`, the 90% effect concentration (IC90) is 1.55 µg/mL (≈ 3.54 µM).
Under `O=C(c1cccs1)N(CCCn1ccnc1)c1nc2ccc(F)cc2s1` stands 3.01 µg/mL (≈ 7.79 µM).
Under `CCOC(=O)c1cnc2ccc(OCC)cc2c1Nc1cccc(C)c1` stands 14.1 µg/mL (≈ 40.3 µM); under `CCOc1cccc2nc(NC(=O)c3ccc(Oc4ccccc4)cc3)sc12`, 13.7 µg/mL (≈ 35.1 µM).
As for `O=C(Nc1nnc(-c2ccc(Br)cc2)o1)c1cc(Cl)sc1Cl`, the IC90 was 3.43 µg/mL (≈ 8.18 µM).
Under `CCCCOc1ccc(C(=O)Nc2nnc(-c3ccncc3)o2)cc1` stands 3.42 µg/mL (≈ 10.1 µM); under `COc1cccc2sc(Nc3nc4ccc(S(C)(=O)=O)cc4s3)nc12`, 20.2 µg/mL (≈ 51.7 µM).
